In one data set the test system is P-glycoprotein (P-gp). The note with it: cited from earlier work.
For data set [1] the following is noted: phase I studies; cited from earlier work.
The test system of the next data set is P-gp. In kind it is in vivo, healthy adults (human). Particulars: human, not told, po.
The format of data set [2] is in vivo, healthy adults (human). The note with it: for AUC(0-inf) / Cmax / Tmax / half-life / AUC(0-t): human, plasma; for AUC(0-t): Period 2: omadacycline with verapamil, linear mixed-effect model.
The nature of data set [3]: Safety and tolerability assessments. The note with it: for Safety and tolerability: healthy adults. The class given is in vivo, healthy adults (human).
The conditions of data set [4]: period 2, single oral 240 mg verapamil ER; data not shown.
[5] abbreviates: Period 2/Period 1 (with verapamil / alone).

Like-named read-outs stand apart in the source and are kept apart here.

By bioavailability is commonly meant the share of a dose that reaches the circulation, judged against a reference dose that is usually intravenous. Lower therefore signals poor availability. A word on the AUC(0-inf): it is total exposure, with the tail of the curve extrapolated. By Cmax is commonly meant the highest concentration seen after dosing. One may read the Tmax as the time from dosing to the highest level. One may read the half-life as how long it takes for the measured level to halve. The low end stands for rapid decline, the high end for slow decline. With `CN(C)c1cc(CNCC(C)(C)C)c(O)c2c1C[C@H]1C[C@H]3[C@H](N(C)C)C(O)=C(C(N)=O)C(=O)[C@@]3(O)C(O)=C1C2=O` [Omadacycline], in the data set on P-glycoprotein (P-gp) (in vitro studies), the P-gp interaction entry is “substrate, but not as an inhibitor” and the “Propensity to permeate across the gastrointestinal (GI) tract” value was “low propensity to permeate”. The P-gp interaction result in the data set with P-glycoprotein (P-gp) (in vitro transporter studies in CaCo cells) is listed as “substrate of P-gp (but not an inhibitor or inducer)”. Moreover, in data set [1], the “Exposure of 300 mg oral dose versus 100 mg IV dose” value is recorded as “comparable exposure”. Besides, the bioavailability with P-gp was ~43.1%. The “λz terminal phase rate constant, arithmetic mean (arithmetic coefficient of variation)” value in data set [2] (Period 1: omadacycline alone, 300 mg oral, N = 12) is 0.1 (11.2) l/h. Moreover, in data set [2] (setting [5]), the “AUC0–24, ratio of geometric LS mean” value was 118.5%; the “AUC0–inf, ratio of geometric LS mean” value is 124.6%; the “AUC0–t, ratio of geometric LS mean” value came to 118.6%; the “Cmax, ratio of geometric LS mean” value is listed as 113.6%. Besides, the “λz terminal phase rate constant, arithmetic mean (arithmetic coefficient of variation)” value in data set [2] (Period 2: omadacycline with verapamil ER 240 mg, N = 10) is recorded as 0.05 (10.7) l/h. Also, in data set [2] (after single oral 240 mg verapamil ER compared with omadacycline alone), the “Increase in systemic exposure to omadacycline (AUC0–24, AUC0–t, AUC0–inf, Cmax)” value was 14–25%. Moreover, in data set [2] (both treatment periods, all instances), the “Plasma concentrations measurable up to (last sampling time)” value is 24 h. For the same compound, the “Time postdose within which Cmax was attained (visual inspection)” value in data set [2] (both treatment periods, mean plasma concentration-time profiles) is on record as ≤ 3 h. In data set [2] (oral), this compound had a total exposure AUC(0-inf) of 10800 ng·h/mL and a Cmax of 607 ng/mL. In data set [2] (oral, 240 mg), the AUC(0-inf) was found to be 10800 ng·h/mL, the peak concentration (Cmax) amounted to 596 ng/mL, the Tmax stood at 2.8 h and the half-life was 14 h. In data set [2] (oral, 300 mg), this compound displayed an AUC(0-inf) of 8690 ng·h/mL and a Cmax of 534 ng/mL. Further, the AUC(0-t) in data set [2] (oral, AUC0–24, geometric LS mean, N = 10) turned out to be 7340 ng·h/mL. Besides, in data set [2] (oral, AUC0–t, geometric LS mean, N = 10), the AUC(0-t) is 7340 ng·h/mL. In addition, in data set [2] (po, 300 mg), the total exposure AUC(0-inf) was found to be 8690 ng·h/mL, the highest concentration (Cmax) turned out to be 534 ng/mL, the time of peak concentration (Tmax) was determined as 2.8 h and the half-life is 12.7 h. Besides, in data set [2] (period 2 (after verapamil) vs period 1), the “AUC measures (AUC0–24, AUC0–t, AUC0–inf) higher than omadacycline alone” value is on record as 18–25%. The “Increase in geometric mean of AUC0–inf” value in data set [2] (verapamil dosing compared with omadacycline alone) is given as 18–25%. The “Increase in bioavailability by inhibition of P-gp (as much as)” value in data set [2] (with verapamil, relative increase) is given as ≤ 25.0%. For the same compound, in data set [3] (omadacycline alone and with verapamil ER), the “Clinical laboratory test results, vital sign measurements, physical examination findings, 12-lead ECG results” value was “no clinically relevant findings”. Besides, the Safety and tolerability entry in data set [3] (single oral 300 mg omadacycline plus 240 mg verapamil ER) was “safe and well tolerated”. The Safety and tolerability result in data set [3] (single oral dose 300 mg omadacycline alone) was “safe and well tolerated”.

Take `COc1ccc(CCN(C)CCCC(C#N)(c2ccc(OC)c(OC)c2)C(C)C)cc1OC` (centres unmarked) [verapamil]: in data set [4], the “Plasma concentrations measurable from 2 h after administration up to (last sampling time)” value was found to be 24 h.

The values are drawn from publication PMC7811981 (European Journal of Drug Metabolism and Pharmacokinetics, 2020).
